Data reported in publication PMC10254444, “Targeting Myeloperoxidase Activity and Neutrophil ROS Production to Modulate Redox Process: Effect of Ellagic Acid and Analogues” (Molecules, 2023).
Entries after “also recorded” stand apart in the source; their conditions may differ.

Columns and labels:
[1] = target: T1, human myeloperoxidase (MPO) (Homo sapiens, UniProt P05164); assay: MPO peroxidase activity, classical assay (Amplex Red); type: biochemical
T1 construct: purchased Calbiochem Millipore
T1 sequence (P05164 49-745): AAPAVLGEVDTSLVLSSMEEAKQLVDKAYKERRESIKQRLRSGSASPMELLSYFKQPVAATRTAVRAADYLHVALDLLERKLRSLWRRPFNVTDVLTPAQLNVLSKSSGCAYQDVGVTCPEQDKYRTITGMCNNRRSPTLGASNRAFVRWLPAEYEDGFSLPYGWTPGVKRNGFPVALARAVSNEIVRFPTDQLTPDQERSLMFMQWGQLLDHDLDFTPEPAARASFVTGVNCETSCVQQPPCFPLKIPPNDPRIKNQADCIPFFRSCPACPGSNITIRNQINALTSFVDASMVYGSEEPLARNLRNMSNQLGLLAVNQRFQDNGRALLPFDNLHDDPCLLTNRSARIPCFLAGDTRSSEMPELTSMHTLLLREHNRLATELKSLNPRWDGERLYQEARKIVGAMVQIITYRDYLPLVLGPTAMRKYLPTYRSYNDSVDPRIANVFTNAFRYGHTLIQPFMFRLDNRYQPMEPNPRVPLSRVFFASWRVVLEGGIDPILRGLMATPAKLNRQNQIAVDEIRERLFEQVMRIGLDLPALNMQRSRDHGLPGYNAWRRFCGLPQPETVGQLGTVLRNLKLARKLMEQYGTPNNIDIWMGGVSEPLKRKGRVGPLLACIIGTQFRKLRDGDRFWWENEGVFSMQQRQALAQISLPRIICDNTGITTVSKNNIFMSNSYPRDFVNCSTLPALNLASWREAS
Protocol: (§1) Measurement of the peroxidase activity of MPO was performed by a classical enzymatic assay and by SIEFED assay as described by Nyssen et al.. The MPO solution was prepared with purified human MPO in dilution buffer (PBS 20 mM at pH 7.4 with 5 g/L BSA and 0.1% Tween-20). The solutions of EA or analogue, at final concentrations ranging from 10^−8 M to 10^−5 M, were incubated for 10 min with human MPO at a final concentration of 5 mU/mL before further use. The revelation of MPO activity was performed by monitoring the enzyme-catalyzed oxidation of Amplex Red in the presence of H2O2 (10 μM) and nitrite (4.5 mM) in phosphate buffer at pH 7.4.
After incubation, mixtures containing 100 μL of EA/analogue or vehicle (DMSO) and MPO were loaded into wells of microtiter plates (transparent), and the peroxidase activity was measured by adding 10 μL sodium nitrite solution (4.5 mM, final concentration) and 100 μL of the reactional solution containing 10 µM H2O2 and 40 µM Amplex® Red (AR) in phosphate buffer (50 mM) at pH 7.4. The oxidation of AR into the fluorescent resorufin adduct (λexcitation = 544 nm; λemission = 590 nm) was monitored for 30 min at 37 °C with a fluorescent plate reader (Fluoroskan Ascent, Fisher Scientific, Hampton, NH, USA). To eliminate the possibility of the artifact reactions that might arise from MPO activity or its natural substrate (H2O2), the direct reaction of ellagic acid or an analogue with H2O2 was performed in phosphate buffer (PBS) without the addition of human MPO.

[2] = target: T1, human myeloperoxidase (MPO); assay: MPO activity by SIEFED assay; type: biochemical
Protocol: as §1
Samples with MPO and various concentrations of […] were prepared and incubated as with the classical assay. An amount of 100 μL of each mixture (MPO alone or MPO + EA/DMSO) was then loaded into the wells of a SIEFED microtiter plate coated with rabbit polyclonal antibodies (3 μg/mL) against human MPO and incubated for 2 h at 37 °C in darkness. After washing up the wells, the activity of the enzyme captured by the antibodies was measured by adding 10 μL sodium nitrite solution (4.5 mM, final concentration) and 100 μL of a reactional solution containing 10 μM H2O2 and 40 μM Amplex® in phosphate buffer (50 mM) at pH 7.4. The oxidation of Amplex® Red into the fluorescent adduct resorufin (λexcitation = 544 nm; λemission = 590 nm) was monitored for 30 min at 37 °C with a fluorescent plate reader (Fluoroskan Ascent, Fisher Scientific). As for the MPO direct assay, a control assay set as the relative value of MPO activity was performed with purified MPO in the presence of PBS instead of the samples of EA or analogue dissolved in DMSO. In this SIEFED assay, MPO was bonded by the antibodies into the wells, and EA/analogue was discarded in the washing step before starting the measurement of the enzymatic activity. For both MPO assays, the inhibition percentage was calculated using a similar formula (Equation (1)) as described above.

Structure (SMILES): CN(C)C(=O)Oc1cc2c(=O)oc3c(OC(=O)N(C)C)c(OC(=O)N(C)C)cc4c(=O)oc(c1OC(=O)N(C)C)c2c34 [compound 6, Sevellagic acid]
- MPO inhibition, classical assay (in words) [1]: lack of effect
- MPO activity, SIEFED assay (in words) [2]: weak activity or the absence of inhibition activity

Structure (SMILES): CCOC1Oc2cc(C(=O)OC)cc(O)c2O1 (stereo not drawn) [compound 11, methyl 2-ethoxy-7-hydroxybenzo[d][1,3]dioxole-5-carboxylate]
- MPO activity, SIEFED assay (in words) [2]: activator of MPO activity; also recorded: promote, rather than inhibit, MPO activity
